The values that follow come from publication PMC12691742, “Anti-Cancer Outcome of Glucocorticoid Receptor Transrepression by Synephrine Derivatives in Hematological Malignancies” (International Journal of Molecular Sciences, 2025).

The test system of data set [1] is Rankl, Mmp9, Tsc2, Trap, Bglap mRNA expression in bone tissue. Description: Glucocorticoid-induced osteoporosis model: Q-PCR of marker genes in bone tissue. The format is in vivo, mice. Conditions: 5 weeks; Dex 20 mg/kg, 10S-E2 10 mg/kg. The procedure: (A) H&E bone staining and quantification of cortical bone thickness. (B) Q-PCR analysis of Rankl, Mmp9, Tsc2, Trap, and Bglap mRNA expression in bone tissue. […] (C) H&E skin staining and quantification of dermal adipose thickness (50 images per treatment group of 10 animals). Statistically significant differences compared to the control: * p < 0.05, ** p < 0.01.
Total RNA isolation from cell cultures and murine bones, reverse transcription, and Q-PCR were performed as described in [36]. […] Results were normalized to the expression of the housekeeping RPL27 и Rpl27 genes. The experiments were performed in triplicate.
The protocol for the experiment was approved by the local N.N. Blokhin National Medical Research Center Ethics Committee and corresponded to the guidelines for the welfare and use of animals in cancer research adopted by The United Kingdom Coordinating Committee on Cancer Prevention Research. […] Body weight was recorded twice a week for toxicity control.

For data set [2], the system named is NF-kB activity in Granta cells. Kind of data set: NF-kB.Luc reporter assay in Granta cells. The conditions noted are these: 5 h, 10S-E2 1 µM. The format is cell-based. The procedure: (§1) We analyzed GR TR function using an NF-kB.Luc reporter assay with the irritating inflammatory agent phorbol 13-acetate 12-myristate (TPA) as an inducer of NF-kB signaling and positive control.
Figure 4 Effects of synephrine derivatives on GR transrepression in Granta lymphoma and K562 leukemia cells. (A) K562 and Granta cells stably infected with the lentiviruses bearing the NF-kB luciferase reporter. Cells were incubated for 5 h with the solvent (control), TPA (5 ng/mL), 4S-C2 (10 µM), 8S-E3 (10 µM), 10S-E2 (1 µM), or 13S-G2 (1 µM). Luciferase activity was determined as described in the Materials and Methods section. (B) IL1-α and IL6 mRNA expression in K562 and Granta cells. Q-PCR results were normalized to the expression of the housekeeping gene RPL27 and are presented as the fold change compared to the control. The mean ± SD was calculated for three individual samples/condition (n = 3). Statistically significant differences compared to the control: * p < 0.05, ** p < 0.01.
Lentiviral stocks were generated using the lentiviral expression vector NF-kB. Luc was encoded with Firefly Luciferase reporters with the NF-kB-responsive promoter of minimal CMV promoter as a control (“System Bioscience”, Moutain View, CA, USA), along with packing plasmids GAG, REV, and VSVg. HEK-293T cells were transfected with the abovementioned plasmids using TurboFect reagent (“Thermo Scientific”, Waltham, MA, USA) according to the manufacturer’s protocol. […] The infection efficiency exceeded 90% (tracked by GFP fluorescence).
(§2) Cells (10^4 cells/well in a 24-well plate), stably expressing Firefly Luciferase under the NF-kB promoter, were treated for 5 h with TPA (12-O-tetradecanoylphorbol-13-acetate, Boston, MA, USA, 10 ng/mL), 4S-C2 (10 µM), 8S-E3 (10 µM), 10S-E2 (1 µM), 13S-G2 (1 µM), or the vehicle. Luciferase activity was measured as described using a commercial Luciferase Assay (“Promega”, Madison, WI, USA) and Luminometer TD 20/20 (“Turner Design Instruments”, San Jose, CA, USA). […]
(In a reporter assay the amount or activity of a reporter protein is the signal.)

The subject of data set [3] is NF-kB activity in K562 cells. Description: NF-kB.Luc reporter assay in K562 cells. The format is cell-based. The conditions noted are these: 5 h, 10S-E2 1 µM. Here is the method: as §1
Figure 4 Effects of synephrine derivatives on GR transrepression in Granta lymphoma and K562 leukemia cells. (A) K562 and Granta cells stably infected with the lentiviruses bearing the NF-kB luciferase reporter. Cells were incubated for 5 h with the solvent (control), TPA (5 ng/mL), 4S-C2 (10 µM), 8S-E3 (10 µM), 10S-E2 (1 µM), or 13S-G2 (1 µM). Luciferase activity was determined as described in the Materials and Methods section. (B) IL1-α and IL6 mRNA expression in K562 and Granta cells. […] The mean ± SD was calculated for three individual samples/condition (n = 3). […]
Lentiviral stocks were generated using the lentiviral expression vector NF-kB. […] The infection efficiency exceeded 90% (tracked by GFP fluorescence).
as §2

Data set [4] deals with GR phosphorylated by Ser211 in K562 and Granta cells. Description: Western blot of nuclear phospho-GR (Ser211). Conditions: 10 h; Dex 10 µM, 4S-C2 50 µM, 8S-E3 50 µM, 10S-E2 15 µM, 13S-G2 25 µM. Format: cell-based. Here is the method: (§3) Figure 3 Effects of synephrine derivatives on GR transactivation in Granta lymphoma and K562 leukemia cells. (A) Q-PCR analysis of FKBP51, GILZ, and DDIT4 mRNA expression in K562 and Granta cells. […] The Q-PCR results were normalized to the expression of the housekeeping gene RPL27 and are presented as fold changes compared to the control. The mean ± SD was calculated for three individual samples/condition (n = 3). Statistically significant differences compared to the control: * p < 0.05, ** p < 0.01. (B) The levels of the nuclear fraction of phospho-GR (Ser211) were determined using Western blot analysis (n = 3; characteristic images are presented in the figure). Histone H3 was used as a loading control.
Western blot analysis was performed as previously described. Proteins were resolved using SDS-PAGE. Membranes were blocked with 5% nonfat milk solution and then incubated with primary antibodies against phosphorylated GR (pGR, Ser211) (“Santa Cruz Biotechnology”, Santa Cruz, CA, USA) overnight at 4 °C. To verify equal protein loading and adequate transfer, the membranes were probed with Histone H3 antibodies (“Cell Signaling”, Boston, MA, USA). Goat anti-rabbit IgGs (“Jackson Immuno Research”, West Grove, PA, USA) were used as secondary antibodies. Signals were detected using ECL reagent and an ImageQuant LAS4000 system (“GE HealthCare”, Chicago, IL, USA). ImageJ 1.54h software was used for densitometry. The experiments were performed in triplicate.
7 K562, pGR nuclear 5 Granta, pGR nuclear
Supplementary Figure S 22. Quantification of Western blot analysis. K562 and Granta cells […]
μM) and 13S-G2 (25 μ M) for 10 h. Quantification of Western blot anal ysis of p- GR protein levels was done usin g Im a ge J f ree so ftwar e. Statisticall y significant diff eren ces as compared to control: […]
On the technique in general: A western blot detects proteins with antibodies after separation by electrophoresis.

For data set [5], the system named is FKBP51, GILZ, DDIT4 mRNA expression in K562 and Granta cells. Description: Q-PCR of GR transactivation marker genes. The conditions noted are these: 4 h (FKBP51, GILZ) or 24 h (DDIT4); Dex 10 µM, 10S-E2 0.1 µM; vs control. The format is cell-based.
Source text: Q-PCR results were confirmed by Western blot analysis of the level of GR phosphorylated by Ser211, known as a crucial protein modification for GR TA realization because of its binding to short cysteine-rich fragments of the coactivator CREB-binding protein [41].
as §3
Total RNA isolation from cell cultures and murine bones, reverse transcription, and Q-PCR were performed as described in [36]. Primers were designed using NCBI Primer-BLAST https://www.ncbi.nlm.nih.gov/tools/primer-blast/, accessed on 25 August 2025 (Supplementary Table S1). Results were normalized to the expression of the housekeeping RPL27 и Rpl27 genes. The experiments were performed in triplicate.

For the molecule `CCCCCCNCC(O)c1ccc(OCc2ccccc2)cc1` (stereo not drawn) [10S-E2, 1-[4-(benzyloxy)phenyl]-2-(hexylamino)ethanol], in data set [1], the “Mmp9 mRNA expression in bone tissue” value is “significantly downregulated”, the “Rankl mRNA expression in bone tissue” value is on record as “significantly downregulated”, the “Trap mRNA expression in bone tissue” value is given as “significantly downregulated” and the “Tsc2 mRNA expression in bone tissue” value is listed as “significantly downregulated”. Moreover, the “effect on NF-kB activity” value in data set [2] (4S-C2 10 µM) was “not statistically significant”. Also, in data set [2], the “inhibition of luciferase activity (NF-kB)” value is 15%. The “inhibition of luciferase activity (NF-kB)” value in data set [3] is 60%. The “GR phosphorylation level at Ser211” value in data set [4] is “did not affect the phosphorylation”. Also, the “expression of TA marker genes FKBP51, GILZ, DDIT4” value in data set [5] was “did not increase the expression”.
